Experimental findings from publication PMC6943709, “Synergistic Inhibition of Acetylcholinesterase by Alkaloids Derived from Stephaniae Tetrandrae Radix, Coptidis Rhizoma and Phellodendri Chinensis Cortex” (Molecules, 2019) are described below.

This test concerns the target T1, Acetylcholinesterase (AChE) (Mus musculus, UniProt P21836).
T1 construct: The assay medium consisted of brain lysate (5 mg/mL) containing different concentrations of testing drugs; from tissue; host or cells: mouse brain lysate
Kind of test: biochemical. The test is classed as biochemical. The following applies: for AChE Inhibitory Activity: ranking by IC50, molar concentration (alkaloids). The protocol: The combinations of fangchinoline–coptisine/berberine at concentration ratios of 1:5, 1:2, 1:1, and 2:1 were individually prepared by mixing appropriate volumes of fangchinoline and coptisine or berberine stock solutions. The solutions of fangchinoline–coptisine combinations (with initial system concentrations 4:20, 10:20, 20:20, and 20:10 μM, respectively) were diluted into seven concentrations by DMSO, respectively. The solutions of fangchinoline–berberine combinations (with initial system concentrations 2:10, 5:10, 10:10, and 20:10 μM, respectively) were diluted into seven concentrations by DMSO, respectively. The stocks of tetrandrine, epiberberine, and palmatine were taken appropriately and diluted into six concentrations (with initial system concentrations 30, 100, and 50 μM, respectively) by DMSO, respectively.
The mouse brain lysate (0.1 g/mL, containing 10 mM HEPES (pH 7.4), 1 mM EDTA, 1 mM EGTA, 150 mM NaCl, 0.5% triton X-100, 10 μg/mL leupeptin, 10 μg/mL aprotinin, 10 μg/mL pepstatin, and 50 μg/mL benzamidine HCL) was prepared. AChE enzymatic activity was assayed by 96-well microtiter plate with a final volume of 200 μL, according to the Ellman method. […] Briefly, the mixture of brain lysate containing the testing drugs, Na2HPO4 buffer, and iso-OMPA solution were incubated at 37 °C for 10 min, and then ATCh and DNTB solutions were added. The reaction solution was incubated at 37 °C for 30 min, and AChE activity was determined by measuring the absorbance at 405 nm. To eliminate the drug–solvent influence on AChE enzymatic activity, the concentration of DMSO was controlled at 0.5% in the 200 μL reaction volume. In order to correct for color interference at 405 nm, a background color contrast group without brain lysate and a drug color contrast group without brain lysate were set, respectively. […] Tacrine was used as a positive control. Protein concentrations were measured with a kit from Bio-Rad (Hercules, CA, USA).

One may read the IC50 as the midpoint of a concentration-inhibition curve.

Where two headings read alike, the source gives them in different places.

T1 sequence (P21836 32-614): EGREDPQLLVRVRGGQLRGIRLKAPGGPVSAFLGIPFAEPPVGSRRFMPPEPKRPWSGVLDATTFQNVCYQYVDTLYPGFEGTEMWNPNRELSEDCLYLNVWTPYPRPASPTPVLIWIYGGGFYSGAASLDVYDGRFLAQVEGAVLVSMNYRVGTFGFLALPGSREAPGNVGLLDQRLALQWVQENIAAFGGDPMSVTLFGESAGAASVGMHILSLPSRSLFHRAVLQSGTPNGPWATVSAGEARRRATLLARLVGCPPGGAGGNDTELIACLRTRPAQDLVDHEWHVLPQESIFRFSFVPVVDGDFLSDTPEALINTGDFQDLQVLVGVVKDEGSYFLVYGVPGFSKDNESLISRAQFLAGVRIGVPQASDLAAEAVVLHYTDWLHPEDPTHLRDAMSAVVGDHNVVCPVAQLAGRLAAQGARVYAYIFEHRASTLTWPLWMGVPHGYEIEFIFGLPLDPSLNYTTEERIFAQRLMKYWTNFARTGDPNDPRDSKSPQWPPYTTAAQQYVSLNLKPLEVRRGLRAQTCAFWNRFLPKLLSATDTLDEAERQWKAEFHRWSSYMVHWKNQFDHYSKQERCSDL

Consider `COc1ccc2cc3[n+](cc2c1OC)CCc1cc2c(cc1-3)OCO2` [Berberine], for which the concentration for half-maximal inhibition (IC50) stood at 2.33 ± 0.16 µM; the “AChE Inhibitory Activity” value is “+++ (for molar concentration, “+++”, “++”, and “+” represent IC50 values of 1–5, 5–10 and 10–20 μM, respectively)”.

Turning to `c1c2c(cc3c1OCO3)-c1cc3ccc4c(c3c[n+]1CC2)OCO4` [Coptisine], the IC50 stood at 13.5 ± 1.48 µM; the “AChE Inhibitory Activity” value was “+ (for molar concentration, “+++”, “++”, and “+” represent IC50 values of 1–5, 5–10 and 10–20 μM, respectively)”.

Regarding `COc1cc2c(cc1OC)-c1cc3ccc4c(c3c[n+]1CC2)OCO4` [Epiberberine], the “AChE Inhibitory Activity” value is “+ (for molar concentration, “+++”, “++”, and “+” represent IC50 values of 1–5, 5–10 and 10–20 μM, respectively)”. Besides, for the setting “single alkaloids, mouse brain lysate, Mean ± SEM, n = 3, read-out: IC50”, the 50% inhibitory concentration (IC50) stood at 18.7 ± 0.83 µM.

Take `COc1ccc2cc1Oc1ccc(cc1)C[C@H]1c3cc(c(OC)cc3CCN1C)Oc1c(O)c(OC)cc3c1[C@H](C2)N(C)CC3` [Fangchinoline]: the IC50 turned out to be 2.17 ± 0.05 µM; the “AChE Inhibitory Activity” value is “+++ (for molar concentration, “+++”, “++”, and “+” represent IC50 values of 1–5, 5–10 and 10–20 μM, respectively)”.

For the compound `COc1cc2c(cc1OC)-c1cc3ccc(OC)c(OC)c3c[n+]1CC2` [Palmatine], the 50% inhibitory concentration (IC50) came out at 6.52 ± 0.84 µM; the “AChE Inhibitory Activity” value is “++ (for molar concentration, “+++”, “++”, and “+” represent IC50 values of 1–5, 5–10 and 10–20 μM, respectively)”.

Consider `COc1ccc2cc1Oc1ccc(cc1)C[C@H]1c3cc(c(OC)cc3CCN1C)Oc1c(OC)c(OC)cc3c1[C@H](C2)N(C)CC3` [Tetrandrine], for which the “AChE Inhibitory Activity” value was “−”. The AChE inhibitory potency entry (mouse brain lysate, result in words) was “did not show AChE inhibitory potency”.
